Measured values taken from PubChem BioAssay (NCI).
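Five concentrations, 48 hours, 96-well plates. At the TGI there is no net growth.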

Tests used:
Experiment in all cases: growth of human tumour cells (NCI), 48 h
786-0 renal = test system: 786-0 renal
A498 renal = test system: A498 renal
A549 NSCLC = test system: A549 NSCLC
ACHN renal = test system: ACHN renal
CAKI-1 renal = test system: CAKI-1 renal
CCRF-CEM leukemia = test system: CCRF-CEM leukemia
COLO 205 colon = test system: COLO 205 colon
DU-145 prostate = test system: DU-145 prostate
EKVX NSCLC = test system: EKVX NSCLC
HCC-2998 colon = test system: HCC-2998 colon
HCT-116 colon = test system: HCT-116 colon
HCT-15 colon = test system: HCT-15 colon
HOP-62 NSCLC = test system: HOP-62 NSCLC
HOP-92 NSCLC = test system: HOP-92 NSCLC
HS 578T breast = test system: HS 578T breast
HT29 colon = test system: HT29 colon
IGROV1 ovarian = test system: IGROV1 ovarian
K-562 leukemia = test system: K-562 leukemia
KM12 colon = test system: KM12 colon
LOX IMVI melanoma = test system: LOX IMVI melanoma
M14 melanoma = test system: M14 melanoma
MALME-3M melanoma = test system: MALME-3M melanoma
MCF7 breast = test system: MCF7 breast
MDA-MB-231 breast = test system: MDA-MB-231 breast
MDA-MB-435 = test system: MDA-MB-435
MDA-N = test system: MDA-N
MOLT-4 leukemia = test system: MOLT-4 leukemia
NCI-H226 lung = test system: NCI-H226 lung
NCI-H23 lung = test system: NCI-H23 lung
NCI-H460 lung = test system: NCI-H460 lung
NCI-H522 lung = test system: NCI-H522 lung
NCI/ADR-RES ovarian = test system: NCI/ADR-RES ovarian
OVCAR-3 ovarian = test system: OVCAR-3 ovarian
OVCAR-4 ovarian = test system: OVCAR-4 ovarian
OVCAR-5 ovarian = test system: OVCAR-5 ovarian
OVCAR-8 ovarian = test system: OVCAR-8 ovarian
PC-3 prostate = test system: PC-3 prostate
RPMI-8226 leukemia = test system: RPMI-8226 leukemia
RXF 393 renal = test system: RXF 393 renal
SF-268 CNS = test system: SF-268 CNS
SF-295 CNS = test system: SF-295 CNS
SF-539 CNS = test system: SF-539 CNS
SK-MEL-2 melanoma = test system: SK-MEL-2 melanoma
SK-MEL-28 melanoma = test system: SK-MEL-28 melanoma
SK-MEL-5 melanoma = test system: SK-MEL-5 melanoma
SK-OV-3 ovarian = test system: SK-OV-3 ovarian
SN12C renal = test system: SN12C renal
SNB-19 CNS = test system: SNB-19 CNS
SNB-75 CNS = test system: SNB-75 CNS
SR leukemia = test system: SR leukemia
SW-620 colon = test system: SW-620 colon
T-47D breast = test system: T-47D breast
TK-10 renal = test system: TK-10 renal
U251 CNS = test system: U251 CNS
UACC-257 melanoma = test system: UACC-257 melanoma
UACC-62 melanoma = test system: UACC-62 melanoma
UO-31 renal = test system: UO-31 renal
BT-549 breast = test system: BT-549 breast

Compound: C[Si](C)(C)CCOCN(C(=O)C1=CCC2(CC1)OCCO2)c1ccccc1I
- TGI (786-0 renal): 39.8 µM
- TGI (A498 renal): 27.3 µM
- TGI (A549 NSCLC): 88.2 µM
- TGI (ACHN renal): 44 µM
- TGI (CAKI-1 renal): 55.7 µM
- TGI (CCRF-CEM leukemia): 79.5 µM
- TGI (COLO 205 colon): > 100 µM
- TGI (DU-145 prostate): > 100 µM
- TGI (EKVX NSCLC): 29.1 µM
- TGI (HCC-2998 colon): 50.5 µM
- TGI (HCT-116 colon): 44.8 µM
- TGI (HCT-15 colon): 41.6 µM
- TGI (HOP-62 NSCLC): 42.1 µM
- TGI (HOP-92 NSCLC): 22.1 µM
- TGI (HS 578T breast): 44.6 µM
- TGI (HT29 colon): > 100 µM
- TGI (IGROV1 ovarian): 42.9 µM
- TGI (K-562 leukemia): > 100 µM
- TGI (KM12 colon): 38.3 µM
- TGI (LOX IMVI melanoma): > 100 µM
- TGI (M14 melanoma): 39.5 µM
- TGI (MALME-3M melanoma): 52.9 µM
- TGI (MCF7 breast): 34.4 µM
- TGI (MDA-MB-231 breast): 56.6 µM
- TGI (MDA-MB-435): 33.8 µM
- TGI (MDA-N): 59.1 µM
- TGI (MOLT-4 leukemia): 98.7 µM
- TGI (NCI-H226 lung): 53.8 µM
- TGI (NCI-H23 lung): 39 µM
- TGI (NCI-H460 lung): 61.3 µM
- TGI (NCI-H522 lung): 38.7 µM
- TGI (NCI/ADR-RES ovarian): > 100 µM
- TGI (OVCAR-3 ovarian): 38.9 µM
- TGI (OVCAR-4 ovarian): 45.5 µM
- TGI (OVCAR-5 ovarian): 41.9 µM
- TGI (OVCAR-8 ovarian): > 100 µM
- TGI (PC-3 prostate): 27 µM
- TGI (RPMI-8226 leukemia): 52.2 µM
- TGI (RXF 393 renal): 35.4 µM
- TGI (SF-268 CNS): 41.9 µM
- TGI (SF-295 CNS): 32 µM
- TGI (SF-539 CNS): 53.4 µM
- TGI (SK-MEL-2 melanoma): 32.6 µM
- TGI (SK-MEL-28 melanoma): 42.9 µM
- TGI (SK-MEL-5 melanoma): > 100 µM
- TGI (SK-OV-3 ovarian): 33.4 µM
- TGI (SN12C renal): 70.9 µM
- TGI (SNB-19 CNS): 37.7 µM
- TGI (SNB-75 CNS): 34.6 µM
- TGI (SR leukemia): > 100 µM
- TGI (SW-620 colon): 68 µM
- TGI (T-47D breast): > 100 µM
- TGI (TK-10 renal): 63.5 µM
- TGI (U251 CNS): > 100 µM
- TGI (UACC-257 melanoma): 54.3 µM
- TGI (UACC-62 melanoma): 41.3 µM
- TGI (UO-31 renal): 38.9 µM

Compound: CCOc1cc(CC[N+](C)(C)C)c2c(ccc3ccc(OC)c(OC)c32)c1OC
- TGI (786-0 renal): > 100 µM
- TGI (A549 NSCLC): > 100 µM
- TGI (ACHN renal): > 100 µM
- TGI (BT-549 breast): > 100 µM
- TGI (CAKI-1 renal): > 100 µM
- TGI (COLO 205 colon): > 100 µM
- TGI (DU-145 prostate): > 100 µM
- TGI (EKVX NSCLC): > 100 µM
- TGI (HCC-2998 colon): > 100 µM
- TGI (HCT-116 colon): > 100 µM
- TGI (HOP-92 NSCLC): > 100 µM
- TGI (HT29 colon): > 100 µM
- TGI (IGROV1 ovarian): > 100 µM
- TGI (M14 melanoma): > 100 µM
- TGI (MALME-3M melanoma): > 100 µM
- TGI (MDA-MB-231 breast): > 100 µM
- TGI (MDA-MB-435): > 100 µM
- TGI (MDA-N): > 100 µM
- TGI (NCI-H522 lung): > 100 µM
- TGI (NCI/ADR-RES ovarian): > 100 µM
- TGI (OVCAR-3 ovarian): > 100 µM
- TGI (OVCAR-8 ovarian): > 100 µM
- TGI (PC-3 prostate): > 100 µM
- TGI (RPMI-8226 leukemia): > 100 µM
- TGI (SF-268 CNS): > 100 µM
- TGI (SF-295 CNS): > 100 µM
- TGI (SK-MEL-28 melanoma): > 100 µM
- TGI (SK-MEL-5 melanoma): > 100 µM
- TGI (SK-OV-3 ovarian): > 100 µM
- TGI (SN12C renal): > 100 µM
- TGI (SNB-19 CNS): > 100 µM
- TGI (SNB-75 CNS): > 100 µM
- TGI (SR leukemia): > 100 µM
- TGI (SW-620 colon): > 100 µM
- TGI (T-47D breast): > 100 µM
- TGI (U251 CNS): > 100 µM
- TGI (UACC-62 melanoma): > 100 µM
- TGI (UO-31 renal): > 100 µM
